# Values of other authors in patent US6692771B2, “Emulsions as solid dosage forms for oral administration” (CIMA Labs Inc., priority 2001, dated 2004).
# Details: orally administered dose; average value given in parentheses
row,Molecule,average bioavailability
1,methyldopa,25%
2,Oc1ccc2c3c1O[C@H]1[C@@H](O)CC[C@@]4(O)[C@@H](C2)N(CC2CCC2)CC[C@]314 [nalbuphine],approximately 17%
